Twelve molecules from article PMC10457016 (Journal of fluorine chemistry, 2023) can be followed below.

pIC50: −log10 of the molar value. ≈ marks a conversion by molar mass, not a printed value. Where two headings read alike, the source gives them in different places.

A word on the pIC50: it is the IC50 on a negative log10 scale, so that one unit is a factor of ten. A low value points to a high IC50. For orientation: Solubility means how much of the substance goes into solution per volume. Read a high Solubility as a readily soluble substance.

In one series the target is T1, human sEH (Homo sapiens, UniProt P34913).
T1 sequence (P34913 1-555): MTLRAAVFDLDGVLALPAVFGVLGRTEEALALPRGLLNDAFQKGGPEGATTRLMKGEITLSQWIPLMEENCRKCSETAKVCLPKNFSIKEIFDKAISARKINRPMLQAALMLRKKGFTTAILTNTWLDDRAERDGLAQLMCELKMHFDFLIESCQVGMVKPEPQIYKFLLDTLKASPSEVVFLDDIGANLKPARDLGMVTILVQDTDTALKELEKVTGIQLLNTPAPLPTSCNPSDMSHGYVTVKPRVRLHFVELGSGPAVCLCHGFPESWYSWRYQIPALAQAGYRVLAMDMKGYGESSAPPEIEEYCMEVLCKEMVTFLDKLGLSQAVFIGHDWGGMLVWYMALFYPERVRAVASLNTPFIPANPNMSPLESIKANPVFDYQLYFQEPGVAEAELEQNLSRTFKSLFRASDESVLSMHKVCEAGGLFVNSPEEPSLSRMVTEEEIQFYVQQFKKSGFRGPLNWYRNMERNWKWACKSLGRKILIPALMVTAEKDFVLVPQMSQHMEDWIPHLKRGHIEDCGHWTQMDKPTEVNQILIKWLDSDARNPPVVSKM
Put plainly: Determination of inhibitory potency. It is filed as biochemical.

Series [1] is described as follows: Solubility in sodium phosphate buffer. It is filed as physicochemical.
Setting [2] is: sodium phosphate buffer, pH 7.4, aqueous buffer.
Setting [3] is: kinetic fluorescent assay, substrate 5 μM, human sEH 1 nM, means of three separate experiments.
[4] abbreviates: sodium phosphate buffer (pH 7.4, 0.1 M) containing 1% of DMSO.

Consider `O=C(NCc1ccn(C(F)F)n1)NCC12CC3CC(CC(C3)C1)C2` [4d, 1-[(Adamantan-1-yl)methyl]-3-[(1-difluoromethyl-1H-pyrazol-3-yl)methyl]urea], for which the pIC50 against human sEH is 7.82. Besides, the Solubility in series [1] (setting [2]) lay within 570 to 580 µM (≈ 193 to 196 µg/mL).
For the molecule `O=C(NCc1ccn(CC(F)F)n1)NC12CC3CC(CC(C3)C1)C2` [3b, 1-Adamantyl-3-{[1-(2,2-difluoroethyl)-1H-pyrazol-3-yl]methyl}urea], the pIC50 against human sEH (setting [3]) was 7.92. In series [1] (setting [4]), the Solubility is 300 to 310 µM.
For the molecule `O=C(NCc1ccn(CC(F)F)n1)NCC12CC3CC(CC(C3)C1)C2` [4b, 1-[(Adamantan-1-yl)methyl]-3-{[1-(2,2-difluoroethyl)-1H-pyrazol-3-yl]methyl}urea], the pIC50 on human sEH is 7.56. In series [1] (setting [2]), this molecule displayed a Solubility of 270 to 280 µM (≈ 95.2 to 98.7 µg/mL).
Regarding `O=C(NCc1ccn(CC(F)(F)F)n1)NC12CC3CC(CC(C3)C1)C2` [3c, 1-Adamantyl-3-{[1-(2,2,2-trifluoroethyl)-1H-pyrazol-3-yl]methyl}urea], the pIC50 at human sEH (setting [3]) is 8.02. The molecule also yielded a Solubility in series [1] (setting [4]) of 390 to 400 µM.
In the same order, the values of `O=C(NCc1ccn(CCF)n1)NC12CC3CC(CC(C3)C1)C2` [3a, 1-Adamantyl-3-{[1-(2-fluoroethyl)-1H-pyrazol-3-yl]methyl}urea] are 7.99 and 440 to 450 µM.
Take `O=C(NCc1ccn(CCF)n1)NCC12CC3CC(CC(C3)C1)C2` [4a, 1-[(Adamantan-1-yl)methyl]-3-{[1-(2-fluoroethyl)-1H-pyrazol-3-yl]methyl}urea]: on human sEH, the pIC50 is 7.86. This molecule also registered a Solubility in series [1] (setting [2]) of 650 to 660 µM (≈ 217 to 221 µg/mL).
For the molecule `O=C(NCc1ccn(C(F)F)n1)NC12CC3CC(CC(C3)C1)C2` [3d, 1-Adamantyl-3-[(1-difluoromethyl-1H-pyrazol-3-yl)methyl]urea], the pIC50 against human sEH (setting [3]) is 8.06. The Solubility in series [1] (setting [4]) is 670 to 680 µM.
In the same order, the values of `Cn1nc(CNC(=O)NC23CC4CC(CC(C4)C2)C3)cc1C(F)(F)F` [3e, 1-Adamantyl-3-[(1-metyl-5-trifluoromethyl-1H-pyrazol-3-yl)methyl]urea] are 8.00 and 160 to 170 µM.
`Cn1nc(CNC(=O)NCC23CC4CC(CC(C4)C2)C3)c(Cl)c1Cl` [4f, 1-[(Adamantan-1-yl)methyl]-3-[(4,5-dichloro-1-methyl-1H-pyrazol-3-yl)methyl]urea]: the pIC50 against human sEH was 8.92. In addition, the Solubility in series [1] (setting [2]) was 120 to 130 µM (≈ 44.6 to 48.3 µg/mL).
For `O=C(NCc1ccn(CC(F)(F)F)n1)NCC12CC3CC(CC(C3)C1)C2` [4c, 1-[(Adamantan-1-yl)methyl]-3-{[1-(2,2,2-trifluoroethyl)-1H-pyrazol-3-yl]methyl}urea] the same measures were 8.14 and 740 to 750 µM (≈ 274 to 278 µg/mL).
`Cn1nc(CNC(=O)NC23CC4CC(CC(C4)C2)C3)c(Cl)c1Cl` [3f, 1-Adamantyl-3-[(4,5-dichloro-1-methyl-1H-pyrazol-3-yl)methyl]urea] gave a pIC50 against human sEH (setting [3]) of 9.10. In series [1] (setting [4]), the Solubility lay within 250 to 260 µM.
`Cn1nc(CNC(=O)NCC23CC4CC(CC(C4)C2)C3)cc1C(F)(F)F` [4e, 1-[(Adamantan-1-yl)methyl]-3-[(1-metyl-5-trifluoromethyl-1H-pyrazol-3-yl)methyl]urea] gave a negative-log IC50 (pIC50) at human sEH (setting [3]) of 7.65. In addition, the Solubility in series [1] (setting [4]) was 160 to 170 µM.
